Assay results published in patent US9738648B2, “Pyridines, pyrimidines, and pyrazines, as BTK inhibitors and uses thereof” (Merck Patent GmbH, priority 2013, dated 2017).
pIC50: −log10 of the molar value.

Key:
[1] = tested on: anti-IgM-induced expression of CD69 in freshly isolated human peripheral blood mononuclear cells (PBMCs); test: Assay B: inhibition of anti-IgM-induced expression of CD69 on CD19 positive cells (B cells) in human PBMCs; type: cell-based; conditions: PBMC, 1 h pre-treatment, overnight anti-human IgM stimulation, CD69 on CD19 positive cells by flow cytometry, read-out: Assay B (mol/L (M))
Description: Btk is critical for mediating the signalling of B cell antigen receptor (BCR) after anti-IgM stimulation. Based on this principle, a functional cell-based assay was established to determine the potency of compounds at inhibiting anti-IgM-induced expression of CD69, a downstream BCR signalling event, in freshly isolated human peripheral blood mononuclear cells (PBMCs). In the assay, a 90 μl PBMC suspension containing 2.5×10^5 cells was pre-treated with 10 μl of test compound at various concentrations for an hour, and then incubated overnight (approximately 16-18 hours) with 5 μl 420 μg/ml affiniPure F(ab′)2 fragment goat anti-human IgM Fc fragment per well (Dianova, Cat. No.: 109-006-129). After the incubation, the cells were washed and immunostained with an APC labelled mouse anti-human CD69 (BD Biosciences; clone: FN50), a PerCP-Cy5.5 labelled mouse anti-human CD19 (BD Biosciences; clone: SJ25C1) and a FITC-labelled mouse anti-human CD3 (BD Biosciences; clone: HIT3a), and fixed for flow cytometric analysis of CD69 expression on CD19 positive cells (B cells). The percentage of CD69 expressing CD19 positive cells was plotted against the concentrations of test compounds to obtain a concentration response curve, and calculate an IC50 value as a measure of the potency of test compounds in the assay.

full-length human BTK = molecular target: T1, full-length human BTK (Homo sapiens, UniProt Q06187); test: BTK IC50 Enzyme Assay (Assay A), microfluidic off-chip mobility shift kinase assay; type: biochemical; conditions: kinKDR peptide substrate, 90 min at 27° C.
T1 construct: 2.5× stocks of full-length human BTK (08-080) from CarnaBio USA, Inc; purchased CarnaBio USA, Inc., Natick, Mass; 08-080
T1 sequence (Q06187 whole entry): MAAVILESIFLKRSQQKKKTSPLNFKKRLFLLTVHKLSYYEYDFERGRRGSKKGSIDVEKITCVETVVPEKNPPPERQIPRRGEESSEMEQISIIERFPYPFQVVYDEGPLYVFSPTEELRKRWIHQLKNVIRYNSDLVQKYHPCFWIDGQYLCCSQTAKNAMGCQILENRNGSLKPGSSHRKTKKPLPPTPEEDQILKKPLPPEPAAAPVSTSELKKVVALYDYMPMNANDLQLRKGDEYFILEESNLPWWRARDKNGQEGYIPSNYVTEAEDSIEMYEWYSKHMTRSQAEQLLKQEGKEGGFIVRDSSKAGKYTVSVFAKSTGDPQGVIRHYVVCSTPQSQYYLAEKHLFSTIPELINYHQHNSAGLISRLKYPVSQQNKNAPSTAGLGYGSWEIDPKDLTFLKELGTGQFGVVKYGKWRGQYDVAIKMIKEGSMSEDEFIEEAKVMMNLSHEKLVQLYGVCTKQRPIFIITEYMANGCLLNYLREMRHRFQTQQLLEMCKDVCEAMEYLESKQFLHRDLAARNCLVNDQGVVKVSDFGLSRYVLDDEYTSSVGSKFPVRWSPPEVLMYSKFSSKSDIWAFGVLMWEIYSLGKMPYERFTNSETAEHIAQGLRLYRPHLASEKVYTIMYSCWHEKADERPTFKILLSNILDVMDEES
Description: BTK IC50 Enzyme Assay (Assay A)
The following describes a microfluidic, off-chip mobility shift kinase assay used to measure inherent potency of compounds against BTK enzyme.
2.5× stocks of full-length human BTK (08-080) from CarnaBio USA, Inc., Natick, Mass., 1.6×ATP and appropriate kinKDR peptide substrate (FITC-AHA-EEPLYWSFPAKKK10 NH2) were prepared in kinase reaction buffer consisting of 25 mM MgCl2, 0.015% Brij-35 (30%), 100 mM Hepes, pH 7.5, and 10 mM DTT.
5 uL of enzyme buffer and 7.5 uL of ATP/kinKDR peptide substrate mix were added to Matrix (#115304) 384-well, sterile, polypropylene plates (Thermo Fisher Scientific, 15 Hudson, N.H.) with 125 nL of serially diluted compounds prepared in 100% DMSO, and incubated for 90 min. at 27° C. Following the incubation period, reactions were stopped by adding 60 uL stop buffer consisting of 100 mM Hepes, pH 7.5, 0.015% Brij-35 (30%), 0.277% Coating Reagent #3 (Caliper Life Sciences, Mountain View, Calif.), 5% DMSO. Stopped reactions were monitored at −2 PSI, −3000 V/−700 V in a LabChip 3000 plate 20 reader from Caliper Life Sciences, a PerkinElmer Company (Hopkinton, Mass.), and the activity was measured by off-chip mobility shift assay measuring the charge/mass difference between substrate and product resulting from peptide phosphorilation. IC50 and efficacy were determined by plotting log [Inhibitor] vs. % Activity in GeneData Screener (Basel, Switzerland).

Row | SMILES | pIC50 (full-length human BTK) | IC50 [1]
1 | C=CC(=O)N1CC(n2ccc3ncnc(Oc4ccc(Oc5ccccc5)cc4)c32)C1 [Compound 3, 1-(3-(4-(4-phenoxyphenoxy)-5H-pyrrolo[3,2-d]pyrimidin-5-yl)azetidin-1-yl)prop-2-en-1-one] | > 7.00 | < 1e-07 M
2 | C=CC(=O)N[C@H]1C[C@@H](n2ccc3ncnc(Oc4ccc(Oc5ccccc5)cc4)c32)C1 [Compound 10, N-(cis-3-(4-(4-phenoxyphenoxy)-5H-pyrrolo[3,2-d]pyrimidin-5-yl)cyclobutyl)acrylamide] | > 7.00 | 1e-07 to 1e-06 M
3 | CN(C)C/C=C/C(=O)N1CC(n2ccc3ncc(-c4ccc(Oc5ccccc5)cc4)cc32)C1 [Compound 13, (E)-4-(dimethylamino)-1-(3-(6-(4-phenoxyphenyl)-1H-pyrrolo[3,2-b]pyridin-1-yl)azetidin-1-yl)but-2-en-1-one] | > 7.00 | 1e-07 to 1e-06 M
4 | O=C(CCCCCNc1ccc([N+](=O)[O-])c2nonc12)NCCN1CCN(C/C=C/C(=O)N2CC(n3ccc4ncnc(Oc5ccc(Oc6ccccc6)cc5)c43)C2)CC1 [Compound 31, (E)-6-((7-nitrobenzo[c][1,2,5]oxadiazol-4-yl)amino)-N-(2-(4-(4-oxo-4-(3-(4-(4-phenoxyphenoxy)-5H-pyrrolo[3,2-d]pyrimidin-5-yl)azetidin-1-yl)but-2-en-1-yl)piperazin-1-yl)ethyl)hexanamide] | > 7.00 | 1e-06 to 5e-06 M
5 | N#CN1CCC(n2ccc3ncnc(Oc4ccc(Oc5ccccc5)cc4)c32)C1 (stereo not shown) [Compound 60, 3-[4-(4-phenoxyphenoxy)-5H-pyrrolo[3,2-d]pyrimidin-5-yl]pyrrolidine-1-carbonitrile] | > 7.00 | 1e-07 to 1e-06 M
6 | N#CN1CC(Cn2ccc3ncnc(Oc4ccc(Oc5ccccc5)cc4)c32)C1 [Compound 66, 3-[[4-(4-phenoxyphenoxy)-5H-pyrrolo[3,2-d]pyrimidin-5-yl]methyl]azetidine-1-carbonitrile] | 5.30 to 6.00 | –
7 | CN(C#N)[C@H]1C[C@H](n2ccc3ncnc(Oc4ccc(Oc5ccccc5)cc4)c32)C1 [Compound 67, (1R,3R)—N-cyano-N-methyl-3-[4-(4-phenoxyphenoxy)-5H-pyrrolo[3,2-d]pyrimidin-5-yl]cyclobutan-1-amine] | 6.00 to 7.00 | –
8 | N#CN1CC(n2ccc3ncnc(Oc4ccc(Oc5ccccc5)cc4)c32)C1 [Compound 68, 3-[4-(4-phenoxyphenoxy)-5H-pyrrolo[3,2-d]pyrimidin-5-yl]azetidine-1-carbonitrile] | 5.30 to 6.00 | –
9 | N#CN1CC2(CC(n3ccc4ncnc(Oc5ccc(Oc6ccccc6)cc5)c43)C2)C1 [Compound 69, 6-[4-(4-phenoxyphenoxy)-5H-pyrrolo[3,2-d]pyrimidin-5-yl]-2-azaspiro[3.3]heptane-2-carbonitrile] | 5.30 to 6.00 | –
10 | CN(C#N)[C@H]1CC[C@H](n2ccc3ncnc(Oc4ccc(Oc5ccccc5)cc4)c32)CC1 [Compound 70, (1R,4R)—N-cyano-N-methyl-4-[4-(4-phenoxyphenoxy)-5H-pyrrolo[3,2-d]pyrimidin-5-yl]cyclohexan-1-amine] | 6.00 to 7.00 | –

Second part, led by results:

Row | pIC50 (full-length human BTK) | SMILES | IC50 [1]
11 | < 5.30 | N#CN1CC[C@@H](n2ccc3ncnc(Oc4ccc(Oc5ccccc5)cc4)c32)C1 [Compound 71, (3R)-3-[4-(4-phenoxyphenoxy)-5H-pyrrolo[3,2-d]pyrimidin-5-yl]pyrrolidine-1-carbonitrile] | –
12 | > 7.00 | N#CN1CC[C@H](n2ccc3ncnc(Oc4ccc(Oc5ccccc5)cc4)c32)C1 [Compound 72, (3S)-3-[4-(4-phenoxyphenoxy)-5H-pyrrolo[3,2-d]pyrimidin-5-yl]pyrrolidine-1-carbonitrile] | 1e-07 to 1e-06 M
13 | > 7.00 | NCCOCCOCCOCCOCCC(=O)NCCN1CCN(C/C=C/C(=O)N2CCC(n3ccc4ncnc(Oc5ccc(Oc6ccccc6)cc5)c43)CC2)CC1 [Compound 73, (E)-1-amino-N-(2-(4-(4-oxo-4-(4-(4-(4-phenoxyphenoxy)-5H-pyrrolo[3,2-d]pyrimidin-5-yl)piperidin-1-yl)but-2-en-1-yl)piperazin-1-yl)ethyl)-3,6,9,12-tetraoxapentadecan-15-amide] | –
14 | 6.00 to 7.00 | CC1=CC(C)=[N+]2C1=C(c1ccc(NC(=S)NCCOCCOCCOCCOCCC(=O)NCCN3CCN(C/C=C/C(=O)N4CCC(n5ccc6ncnc(Oc7ccc(Oc8ccccc8)cc7)c65)CC4)CC3)cc1)c1c(C)cc(C)n1[B-]2(F)F [Compound 74, (E)-1-((4-(5,5-difluoro-1,3,7,9-tetramethyl-5H-414,514-dipyrrolo[1,2-c:2′,1′-f][1,3,2]diazaborinin-10-yl)phenyl)amino)-N-(2-(4-(4-oxo-4-(4-(4-(4-phenoxyphenoxy)-5H-pyrrolo[3,2-d]pyrimidin-5-yl)piperidin-1-yl)but-2-en-1-yl)piperazin-1-yl)ethyl)-1-thioxo-5,8,11,14-tetraoxa-2-azaheptadecan-17-amide] | –
15 | < 5.30 | N#CN1CC[C@@H](n2ccc3ncnc(Oc4ccc(Oc5ccc(F)cc5F)cc4)c32)C1 [Compound 75] | –
16 | 6.00 to 7.00 | N#CN1CC[C@H](n2ccc3ncnc(Oc4ccc(Oc5ccc(F)cc5F)cc4)c32)C1 [Compound 76] | –
